The target of this assay is T1, DYRK1A (Homo sapiens, UniProt Q13627).
T1 construct: purchased Thermo Fisher Scientific (Life Technologies) SelectScreen
Description: SelectScreen Z'LYTE. Format: biochemical. In a few lines:
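Percent values come from Thermo SelectScreen profiling of NU5455, combining activity and binding assays. CSF1R was run in Z'LYTE format at Km app ATP, and CAMK1 in Adapta format with ATP listed at 10.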

Structures are written as SMILES.

The term inhibition denotes the share of the control response that was lost under treatment. High values mean a strong effect, low ones a weak effect.

As to `CN(C(=O)CN1CCOCC1)c1ccc2sc3c(-c4cccc5c(=O)cc(N6CC7CCC(C6)O7)oc45)cccc3c2c1` [NU5455], the inhibition at 1 µM turned out to be 6.4%.

Values taken from article PMC6934184, “Selective DNA-PKcs inhibition extends the therapeutic index of localized radiotherapy and chemotherapy” (The Journal of Clinical Investigation, 2019).
